First: ON=Cc1c(O)ccc2c1OCO2
Second: COc1c2c(cc3c1OCO3)C(O)CN(C)C2 (stereo not drawn)
The melting point of the first is higher: 161 to 162 °C for the first, 151 to 153 °C for the second.

Compared with CCOC(=O)C(=O)Nc1cc(C)c(C(=O)OCC)s1, CCOC(=O)C(C(=O)OCC)c1ccc(OCc2ccccc2)cc1 is lower in melting point: 141 to 142 °C for the first, 65 to 66 °C for the second.

Compared with CN1CC(c2ccc(S(C)(=O)=O)cc2)=C(c2ccccc2)C1=O, NS(=O)(=O)c1ccc(C2=C(c3ccc(Cl)c(Cl)c3)CCC2)cc1 is lower in melting point: 163 to 165 °C for the first, 134 to 135 °C for the second.

First: CCCNC(=C1Sc2ccccc2C1=O)c1ccccc1
Second: COc1cc(C)ccc1S(=O)(=O)OC(Cl)C(=O)c1ccccc1 (stereo not drawn)
The melting point of the first is higher: 124 to 125 °C for the first, 110 to 112 °C for the second.

First: COc1cccc(OC)c1C(=O)P(=O)(C(=O)c1c(C)cc(C)cc1C)c1ccccc1 (stereo not drawn)
Second: COc1ccc(N(C(=O)c2ccc(OC)c(F)c2)c2ccc(F)cc2)cc1
The melting point of the first is higher: 126 to 127 °C for the first, 54 to 56 °C for the second.

First: NS(=O)(=O)c1ccc(S(=O)(=O)N2CCc3cccc(-c4ccncc4)c32)cc1
Second: COc1cccc(-c2nc(-c3ccc(S(C)=O)cc3)[nH]c2-c2ccncc2)c1 (stereo not drawn)
The melting point of the first is higher: 242 to 243 °C for the first, 167 to 168 °C for the second.

Compared with CCOC(=O)c1c(Cn2cncn2)nc2cc(OC)c(OC)cc2c1-c1ccc(O)c(OC)c1, COc1ccc(-c2cc(=O)n(Cc3ccc(Cl)c(Cl)c3)nc2-c2ccc(OC)cc2)cc1 is lower in melting point: 176 to 178 °C for the first, 108 to 110 °C for the second.

First: COC(=O)C(Cc1ccc(OCCN(C)c2nc3ccccc3o2)cc1)Sc1ccccc1 (stereo not drawn)
Second: COC(=O)c1ccccc1-c1ccc(CNc2nc(C(F)(F)F)nc3ccccc23)cc1
The melting point of the first is lower: 78 to 79 °C for the first, 135 to 142 °C for the second.

First: CSc1cc(C)nc(SC)c1NC(=O)CCCSc1nc2ccccc2o1
Second: OCCNc1nc2ccccc2o1
The melting point of the first is lower: 149 to 150 °C for the first, 162 to 164 °C for the second.

Compared with CC1(C)Oc2ccc(C#N)cc2[C@@H](NC(=NC#N)N2CCN(Cc3ccccc3)CC2)[C@@H]1O (relative stereo), CC(=O)Oc1ccccc1C(=O)N1CCN(C(=O)c2ccccc2OC(C)=O)CC1 is lower in melting point: 205 to 207 °C for the first, 175 to 177 °C for the second.

First: CNc1nc2c(N)ncnc2n1C1OC(CO)C(O)C1O (stereo not drawn)
Second: CCc1ncnc(N[C@H]2CC[C@@H](C#N)CC2)c1Cl
The melting point of the first is higher: over 250 °C for the first, 131 to 132 °C for the second.

First: Cc1[nH]c2c(N3CCNCC3)cccc2c1S(=O)(=O)c1ccccc1
Second: O=C(CC1CCN(CCCn2c(=O)[nH]c3ccccc32)CC1)c1cccc(Cl)c1
The melting point of the first is higher: 188 to 190 °C for the first, 160 °C for the second.

First: c1ccc(-c2nc(COc3cccc(CCCn4ccnc4)c3)co2)cc1
Second: O=c1cc(NCc2ccccc2)c(-c2nc[nH]n2)nn1-c1ccccc1
The melting point of the first is lower: 62 to 63 °C for the first, 192 to 193 °C for the second.

Compared with Cc1nn(C)c2c1c1oc(=O)c(Sc3ccccc3)c(O)c1c(=O)n2-c1ccc(OC(F)(F)F)cc1, COc1ccc(-n2nc(Sc3ccc(C#N)cc3)c(C)c(C#N)c2=O)cc1 is higher in melting point: 136 to 139 °C for the first, 195 to 198 °C for the second.

First: Cc1oc(-c2ccccc2)nc1Cc1cc2cc(/C=C/CO)ccc2o1
Second: Cc1oc2ccccc2c1C(=O)N(Cc1ccccc1)Cc1ccc2c(Br)c(O)ccc2c1
The melting point of the first is lower: 156 to 157 °C for the first, 184 to 185 °C for the second.

First: CCOCc1nc2c(N)nc3ccccc3c2n1CC1(OCCS(C)(=O)=O)CCN(C(C)=O)CC1
Second: Cc1nc(N2CCCCC2=O)sc1C(=O)NCc1ccccc1
The melting point of the first is higher: 208 to 210 °C for the first, 175 to 176 °C for the second.

Compared with ON=C1CCN(CC2CCCO2)CC1 (stereo not drawn), CN1CCN(c2ccc(O)c3c2C[C@H](NC(=O)c2ccc(N4CCOCC4)cc2)CC3)CC1 is lower in melting point: 104 to 106 °C for the first, 84 to 88 °C for the second.

First: O=C1CCOc2cc(OCCn3ccnc3)ccc21
Second: ClCCOc1ccc2c(c1)oc1cc(Cl)ccc12
The melting point of the first is higher: 128 to 130 °C for the first, 105 to 107 °C for the second.

First: COc1ccc(C(=O)Nc2c(Cl)cncc2Cl)c2c1oc1ccc(NC(=O)C(F)(F)F)cc12
Second: COC(=O)COc1c(Br)cc(-c2c3ccccc3c(Br)c3oc4ccccc4c23)cc1Br
The melting point of the first is higher: over 300 °C for the first, 188 to 189 °C for the second.

First: CCOC(=O)C1Cc2c(ccc(OC)c2OCc2ccccc2)CN1C(=O)C(c1ccccc1)c1ccccc1 (racemic)
Second: Nc1ccc(Nc2c(NCc3ccccc3)cc(C(=O)O)cc2S(=O)(=O)Nc2ccccc2N)cc1
The melting point of the first is lower: 111 to 113 °C for the first, 225 °C for the second.

First: CCOCCOc1nc2c(c3ccccc13)c1cc(Cl)ccc1n2C
Second: CCCCc1c(C(=O)c2cccnc2)c2ccccc2n1C
The melting point of the first is higher: 93.5 to 95.5 °C for the first, 89 to 90 °C for the second.

CNS(=O)(=O)Cc1ccc(NC(=N)c2ccc3[nH]cc(CCN)c3c2)cc1 and COC(=O)c1ccc(CCc2ccncc2)cc1 cannot be ordered by melting point: 63 to 65 °C for the first, 62 to 64 °C for the second.

Compared with CCOC(=O)c1cc(Cl)c(F)c(Cl)c1, COC(=O)c1nc(-c2ccc(Cl)c(S(C)=O)c2F)nc(N)c1Cl (stereo not drawn) is higher in melting point: 59.5 to 60 °C for the first, 256 to 258 °C for the second.

First: COC(=O)c1cc(C#Cc2ccc(C(=O)OC(C)(C)C)cc2)cnc1Cl
Second: COC(=O)c1cn(CCN)c(Cl)c1-c1cccc(C#N)c1
The melting point of the first is higher: 123 to 124 °C for the first, 111 to 113 °C for the second.

Compared with CNC(=S)NS(=O)(=O)c1cc(CCNC(=O)c2cc(Cl)ccc2OC)ccc1-c1ccco1, O=C(O)CCc1c(-c2ccc(F)cc2)[nH]c2ccc(Cl)cc12 is higher in melting point: 145 to 146 °C for the first, 153 to 154 °C for the second.

Going from CCN(CC)Cc1cc(O)ccc1O to C[Si](C)(C)c1cc(O)c([Si](C)(C)C)cc1O, the melting point rises from 114 °C to 162 °C.

First: CCc1ccc(C(=O)Nc2ccccc2)cc1Nc1cccc(C(F)(F)F)c1
Second: CC(C)(C)C(C(N)=O)c1cccc(Nc2ncnc3[nH]cc(C(=O)c4ccccc4)c23)c1 (stereo not drawn)
The melting point of the first is lower: 133 to 134 °C for the first, 288 to 290 °C for the second.

First: N#Cc1cc2cccc(NS(=O)(=O)c3cccs3)c2[nH]1
Second: N#Cc1ccc(-c2ccc(-c3nc4cc(C#N)ccc4[nH]3)cc2)nc1
The melting point of the first is lower: 283 to 284 °C for the first, 346 to 347 °C for the second.

First: CCC(=O)c1cccc2nc3n(c12)CCCN3c1ccc(Cl)cc1Cl
Second: Cc1cc(Cl)c2[nH]nc(-c3ccc(Cl)cc3)c2n1
The melting point of the first is lower: 195 to 196 °C for the first, 243 to 245 °C for the second.

Compared with Clc1ccc(OCOCOc2ccc(Cl)cc2)cc1, Nc1ccccc1C(=O)c1ccc(Cl)cc1 is higher in melting point: 53.5 to 54 °C for the first, 100 to 102 °C for the second.

First: CC(=O)Nc1nc(Cl)c(NC=O)c(Cl)n1
Second: CCN1C(=O)C(C(N)=O)(c2ccc(Cl)c(Cl)c2)OS1=O (stereo not drawn)
The melting point of the first is higher: 189 to 193 °C for the first, 127 to 128 °C for the second.

First: COc1ccc(CN(CCN(C)CCCNC(=NCCCOc2cccc(CN3CCCCC3)c2)NC#N)c2ccccn2)cc1
Second: CCCCCCCCS(=O)(=O)NCCCCOc1ccc(-n2ccnc2)cc1
The melting point of the first is lower: 62 to 65 °C for the first, 99 to 100 °C for the second.

First: CCN(CC)c1ccc(C2(c3ccc(N(C)C)cc3N(C)C)OC(=O)c3c(Cl)c(Cl)c(Cl)c(Cl)c32)c(C)c1 (stereo not drawn)
Second: CN(C)C=C1C[N+]([O-])=C(c2ccccc2Cl)c2cc(Cl)ccc2C1=O
The melting point of the first is higher: 236 to 238 °C for the first, 196 to 198 °C for the second.

First: O=C(O)C1=C(C(=O)Nc2ccc(Br)cc2F)CCCC1
Second: CS(=O)(=O)c1ccc(C(CC2CCCC2)C(=O)Nc2nccs2)cc1F (stereo not drawn)
The melting point of the first is lower: 98 to 99 °C for the first, 200 to 202 °C for the second.

First: CNC(=O)Oc1ccc2c(c1)CCN2
Second: COc1ccc2nc3[nH]c(=O)[nH]c3cc2c1
The melting point of the first is lower: 109 to 112 °C for the first, over 360 °C for the second.

First: Nc1cc([N+](=O)[O-])c(Cl)cc1F
Second: O=C(O)c1cn2c3c(c(Cl)c(F)cc3c1=O)SCC2
The melting point of the first is lower: 82 to 83.5 °C for the first, 322 to 324 °C for the second.

Compared with Oc1ccc2c(c1O)C(Cc1ccnc3ccccc13)c1ccccc1-2 (stereo not drawn), O=C(c1ccc(O)cc1)c1sc2ccccc2c1-c1ccccc1 is lower in melting point: 244 to 246 °C for the first, 204 to 205 °C for the second.

Compared with COC(=O)c1ccc(C(F)(F)F)cc1N(S(C)(=O)=O)S(C)(=O)=O, CCS(=O)(=O)c1cccnc1S(=O)(=O)NC(C)(C)C is lower in melting point: 221 to 225 °C for the first, 58 to 63 °C for the second.

First: CCCSc1ncc(CC(NC(=O)CC(C)C)C(=O)O)n1Cc1ccccc1Cl (stereo not drawn)
Second: CCOC(=O)CCc1cnn2c(N(C)c3ccccc3)ncnc12
The melting point of the first is higher: 151 to 154 °C for the first, 74 °C for the second.

First: COc1ncc(OC)c(Cl)n1
Second: Cc1cccc(-c2nc3ccc(Cl)nn3c2-c2ccnc(N)c2)c1
The melting point of the first is lower: 78 to 80 °C for the first, 247 to 248 °C for the second.

First: Cn1ncc(Cl)c(NCCCN2CCC(c3noc4cc(F)ccc34)CC2)c1=O
Second: CN1C(=O)CC[C@]2(C)c3ccc(-c4ccc5c(c4)OCO5)cc3CC[C@@H]12
The melting point of the first is lower: 117 to 119 °C for the first, 146 to 152 °C for the second.

First: N#Cc1ccc(-c2cc(-c3ccc(C#N)cc3Cl)no2)cc1
Second: CCCCC#CC(C)(O)c1ccc(-c2ccc(F)cc2)cc1 (stereo not drawn)
The melting point of the first is higher: 247 to 248 °C for the first, 62 °C for the second.

First: CC(CCC=O)C1CCC2C3CC=C4CC(O)CC(O)C4(C)C3CCC12C (stereo not drawn)
Second: CC(C)(N=NC(C)(C)C(=O)NC1CCCCC1)C(=O)NC1CCCCC1
The melting point of the first is higher: 120 to 122 °C for the first, 116 °C for the second.

First: OC1(c2cccnc2N2CCCC2)CCN(CC23CC(c4ccccc42)c2ccccc23)CC1
Second: CC(O)c1cccc(NC(=O)NCC(=O)N(c2ccccc2)C(C)C(=O)N2CCCc3ccccc32)c1 (mixture of isomers)
The melting point of the first is higher: 249 to 253 °C for the first, 170 °C for the second.

Compared with CCOP(=O)(OCC)C1(P(=O)(OCC)OCC)CC(C(=O)C(C)c2ccc(-c3ccccc3)c(F)c2)=NN1 (stereo not drawn), CCC1CCC(CCc2ccccc2NC(=O)C=Cc2ccccc2)N(C)C1 (stereo not drawn) is lower in melting point: 109 to 110 °C for the first, 91 to 98 °C for the second.

First: CCc1nnc(-c2ccccc2)c(=O)n1N
Second: CC1(C)Oc2c(N)cccc2C1=O
The melting point of the first is higher: 164 °C for the first, 80 to 84 °C for the second.

Compared with CCc1ccc(-c2sc(NC(=O)c3ccc(S(=O)(=O)N4CCCC4C(=O)O)cc3)nc2-c2ccc(Cl)cc2)cc1 (stereo not drawn), CCOC(=O)C(C)(C)OC(=O)c1cc(-n2c(=O)cc(CC)[nH]c2=O)c(F)cc1Cl is lower in melting point: 289 to 292 °C for the first, 166 to 167 °C for the second.

First: CCC(CC)Oc1cc(C)nc2c1n(C)c(=O)n2-c1c(C)cc(C)cc1C
Second: CC1(N2C(=O)c3cccc(N)c3C2=O)CCC(=O)NC1=O (stereo not drawn)
The melting point of the first is lower: 151 to 153 °C for the first, 268 to 269 °C for the second.

First: Cc1ccc(C(=O)Nc2c[nH]nc2C(=O)NCCC#N)cn1
Second: C=Cc1cc(C(C)(C)C)c(O)c(C(C)(C)C)c1
The melting point of the first is higher: 201 to 203 °C for the first, 36 to 39 °C for the second.

— a melting point compilation (Tetko et al.; mined from patent text by program, amines drawn as free bases though some values may be those of a salt)
